# Results: ChEMBL document CHEMBL6071198, “Advances in Cancer Treatment and Monitoring: Insights from KRAS Inhibitors and Germline Epitope Burden Monitoring” (ACS Med Chem Lett, 2024)
# What was measured:
# GTPase KRas/RAF1 = GTPase KRas/RAF1 (Homo sapiens, UniProt P01116); assay: Inhibition of biotinylated wild type KRAS (1 to 169 residues) (unknown origin)/CRAF RBD (unknown origin) protein-protein interaction preincubated for 60 mins followed by SOS1 and GTPgs addition measured after 60 mins by FRET assay
# [1] = Inhibition of biotinylated KRAS G12D mutant (unknown origin)/CRAF RBD (unknown origin) protein-protein interaction preincubated for 60 mins followed by SOS1 and GTPgs addition measured after 60 mins by FRET assay; design: species or system Homo sapiens
SMILES,IC50 (GTPase KRas/RAF1),IC50 [1]
Cc1ncsc1-c1ccc([C@H](C)NC(=O)[C@H]2C[C@@H](O)CN2C(=O)[C@@H](NC(=O)CCOCCCN2CCC[C@H]2COc2nc(N3CC4CCC(C3)N4)c3cc(Cl)c(-c4ccc(F)c5sc(N)c(C#N)c45)c(F)c3n2)C(C)(C)C)cc1,25.9 nM,8.18 nM
Cc1ncsc1-c1ccc([C@H](C)NC(=O)[C@H]2C[C@@H](O)CN2C(=O)[C@@H](NC(=O)CCOCCCN2CCC[C@H]2COc2nc(N3CC4CCC(C3)N4)c3cnc(-c4cc(O)cc5cccc(F)c45)c(F)c3n2)C(C)(C)C)cc1,158 nM,8.21 nM
C[C@H](NC(=O)[C@H]1C[C@@H](O)CN1C(=O)[C@@H](NC(=O)CCOCCCN1CCC[C@H]1COc1nc(N2CC3CCC(C2)N3)c2cc(Cl)c(-c3ccc(F)c4sc(N)c(C#N)c34)c(F)c2n1)C(C)(C)C)c1ccc(-c2c(F)cccc2F)cc1,77.7 nM,7.67 nM
C#Cc1c(F)ccc2cc(O)cc(-c3ncc4c(N5CC6CCC(C5)N6)nc(OC[C@@H]5CCCN5CCCOCCC(=O)N[C@H](C(=O)N5C[C@H](O)C[C@@H]5C(=O)N[C@@H](C)c5ccc(-c6c(F)cccc6F)cc5)C(C)(C)C)nc4c3F)c12,41.9 nM,9.4 nM
C#Cc1c(F)ccc2cc(O)cc(-c3ncc4c(N5CC6CCC(C5)N6)nc(OC[C@@H]5CCCN5CCCOCCC(=O)N[C@H](C(=O)N5C[C@H](O)C[C@@H]5C(=O)N[C@@H](C)c5ccc(-c6ccncc6C#N)cc5)C(C)(C)C)nc4c3F)c12,24.2 nM,7.93 nM
C[C@H](NC(=O)[C@H]1C[C@@H](O)CN1C(=O)[C@@H](NC(=O)CCOCCCN1CCC[C@H]1COc1nc(N2CC3CCC(C2)N3)c2cc(C(F)(F)F)c(-c3ccc(F)c4sc(N)c(C#N)c34)c(F)c2n1)C(C)(C)C)c1ccc(-c2c(F)cccc2F)cc1,26.9 nM,8.52 nM
